Test [1] has as its target T1, GAPDH:AMPAR complex (Homo sapiens, UniProt P04406).
T1 construct: It should be noted that HEK293T cells expresses endogenous GAPDH; expressed in transfected cells; host or cells: HEK-293T (GluR1 and GluR2 transfected; GAPDH endogenous)
Nature of the test: Co-immunoprecipitation of GAPDH with GluR2 in HEK-293T cells expressing GluR1/GluR2. The class given is cell-based. The method, then: (§1) Protein affinity purification, in vitro binding, co-immunoprecipitation and Western blot analyses were performed as previously described (73, 79). Antibodies used for immunoprecipitation, Western blots and cell surface ELISA assays included GAPDH (polyclonal from Abcam, monoclonal from Chemicon), GluR2 (Western blots: Chemicon; immunoprecipitation: Upstate), HA (monoclonal, Covance), α-tubulin (monoclonal, Sigma-Aldrich), LaminB1 (Zymed Laboratories).

Test [2] concerns HEK-293T cells expressing GluR1/2. Nature of the test: Quantification of AMPAR-mediated cell death (propidium iodide fluorescence) in HEK-293T cells expressing GluR1/2. The class given is cell-based. Particulars: for attenuation/inhibition of AMPAR-mediated (glutamate-induced) cell death: pretreatment 10 μM, 1 hr, 300 μM glutamate, 25 μM CTZ, 24 hr, n=9. The method, then: (§2) Cells were allowed to recover for 24 hours at 37° C. To quantify AMPA-mediated cell death, culture medium was replaced by extracellular solution containing 50 μg/ml of propidium iodide (PI) (Invitrogen). After 30 minutes incubation at 37° C., fluorescence intensity in each well was measured with a plate reader (Victor3; PerkinElmer). […] Primary hippocampal neurons were exposed to 100 μM KA/25 μM cyclothiazide in medium at 37° C. for 1 hour, at 37° C.

Test [3] concerns HEK-293T cells expressing NR1-1a/2A NMDA receptor. Nature of the test: NR1-1a/2A NMDA receptor-mediated cell death in HEK-293T cells. Particulars: depletion of calcium with 5 mM EGTA; n=9. The class given is cell-based.
The test system of test [4] is HEK-293T cells expressing GluR1/3. Put plainly: GluR1/3 AMPAR-mediated cell death in HEK-293T cells. The class given is cell-based. To be noted: pre-incubation; HEK-293T expressing GluR1/3. On the procedure: as §2
The target of a further test is T2, p53 (Rattus norvegicus, UniProt P10361).
T2 construct: from tissue; host or cells: solubilized nuclear proteins / extracts of rat hippocampus
T2 sequence (P10361 whole entry): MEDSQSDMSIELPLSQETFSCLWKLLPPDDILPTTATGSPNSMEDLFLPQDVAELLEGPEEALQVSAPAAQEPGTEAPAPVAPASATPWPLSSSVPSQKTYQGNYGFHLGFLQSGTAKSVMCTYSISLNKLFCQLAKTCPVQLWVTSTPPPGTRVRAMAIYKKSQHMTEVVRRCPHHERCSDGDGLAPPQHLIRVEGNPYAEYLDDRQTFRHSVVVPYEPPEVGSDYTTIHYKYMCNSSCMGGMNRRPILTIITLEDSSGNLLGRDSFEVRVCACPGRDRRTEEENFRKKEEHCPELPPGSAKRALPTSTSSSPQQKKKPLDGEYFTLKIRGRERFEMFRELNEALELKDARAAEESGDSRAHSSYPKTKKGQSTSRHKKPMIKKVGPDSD
Put plainly: Affinity pull down of p53 from rat hippocampal extracts by GST-GAPDH fragments. The class given is binding. The method, then:
as §1
(§3) Thus, we tested whether GluR2NT and GAPDH can interact with p53 using affinity “pull down” purification experiments. […] To identify the p53 interacting domain on GAPDH, GST-fusion proteins encoding truncated fragments of GAPDH were constructed and used in affinity purification assays (FIG. 24D). […] Furthermore, we confirmed the essential role of I221-E250 in maintaining GAPDH-p53 coupling.

The next test has as its target T3, GAPDH (Rattus norvegicus, UniProt P04797).
T3 construct: from tissue; host or cells: detergent extracts of rat hippocampus
Put plainly: Affinity purification of GAPDH from rat hippocampal extracts by GST-fusion proteins. In kind it is binding. Particulars: solubilized rat hippocampal extracts. The method, then:
as §1
We then further divided the GluR2 NTa3 region into 30 amino acids GST-fusion proteins and mini-genes (GluR2 NTa3-1: H122-E141, 20 a.a; GluR2 NT1-3-2 Y142-K172, 30 a.a) to delineate the region of GluR2 NTa3 involved in the interactions (FIG. 6A). GluR2 NT1-3-2, but not GluR2 NTa3-1 or GST alone, precipitated GAPDH in rat hippocampal extracts in affinity purification assays (FIG. 6B). This was also supported by a blot overlay experiment where [35S]-GAPDH probe bound with GluR2 NT1-3-2, but not GluR2 NTa3-1 or GST alone (FIG. 6C).

The target in another test is T4, [35S]-GAPDH (Homo sapiens, UniProt P04406).
T4 construct: made in house
T4 sequence (P04406 whole entry): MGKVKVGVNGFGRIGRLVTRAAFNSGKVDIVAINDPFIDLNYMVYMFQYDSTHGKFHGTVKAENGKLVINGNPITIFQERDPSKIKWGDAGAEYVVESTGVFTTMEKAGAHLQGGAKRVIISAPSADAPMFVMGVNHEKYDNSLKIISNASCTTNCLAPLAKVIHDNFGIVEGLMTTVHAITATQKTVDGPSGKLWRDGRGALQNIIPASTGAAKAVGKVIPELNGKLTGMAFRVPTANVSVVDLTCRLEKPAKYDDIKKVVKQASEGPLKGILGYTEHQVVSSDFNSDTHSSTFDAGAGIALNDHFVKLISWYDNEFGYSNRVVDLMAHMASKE
Put plainly: In vitro binding (blot overlay) with [35S]-GAPDH probe. To be noted: in vitro binding assay. The method, then:
as §1
In order to delineate the region of the GluR2NT involved in the interaction with the GAPDH, three GluR2NT GST-fusion proteins [GluR2 NTa V22-S271, (250 a.a), GluR2 NTb K272-421, (150 a.a), GluR2 NTc L422-E545, (124 a.a)] were constructed (FIG. 4A). In affinity purification assays, GluR2 NTa, but not GluR2 NTb, GluR2 NTc or GST alone precipitated GAPDH in rat hippocampal brain extract (FIG. 4B). […] To clarify the nature of the interaction, blot overlay experiments were performed, which provided in vitro evidence for a direct interaction. GluR2 NTa, GluR2 NTb and GluR2 NTc were probed with in vitro translated [35S]-methionine labelled peptides encoding GAPDH ([35S]-GAPDH). The [35S]-GAPDH probe bound with GluR2 NTa, but not GluR2 NTb or GluR2 NTc. […]

The test system of test [5] is cultured rat hippocampal neurons. Nature of the test: AMPAR-mediated cell death (PI fluorescence) in cultured rat hippocampal neurons. The class given is cell-based. To be noted: 100 μM KA, 10 μM MK-801, 2 μM nimodipine, 1 hr; n=9. The method, then: (§4) Primary cultures from hippocampus were prepared from fetal Wistar rats (embryonic day 17-19) on Cell^+ (Sarstedt) culture dishes as previously described (73). The cultures were used for experiments on 12-15 d after plating. Hippocampal cultures were pretreated with GluR2 NT1-3-2 peptides before kainic acid treatment.
Cells were allowed to recover for 24 hours at 37° C. To quantify AMPA-mediated cell death, culture medium was replaced by extracellular solution containing 50 μg/ml of propidium iodide (PI) (Invitrogen). After 30 minutes incubation at 37° C., fluorescence intensity in each well was measured with a plate reader (Victor3; PerkinElmer). […]
To examine the GAPDH:AMPAR interactions in a relevant cellular milieu, primary cultures of rat hippocampal neurons were utilized in parallel experiments. We have previously shown in FIG. 21C that pre-incubating hippocampal neurons with the GluR2 NT1-3-2 peptide could disrupt the GAPDH-GluR2 interaction that was promoted by AMPAR activation. We subsequently examined if disruption of this interaction in hippocampal neurons could rescue cells from AMPAR-mediated cell death. AMPAR-mediated cell death was induced by pretreating neurons with kainic acid (KA; 100 μM, 1 hour) in the presence of NMDA receptor and Ca^2+ channel antagonists (10 μM MK-801 and 2 μM nimodipine, respectively).

Test [6] relates to nontransfected HEK-293T cells. Put plainly: Cell death in HEK-293T cells in the absence of GluR1/GluR2 co-expression. In kind it is cell-based. On the procedure: as §2
The test system of test [7] is transfected HEK-293T cells. Put plainly: Cell-ELISA of cell surface GluR2 and GAPDH in transfected HEK-293T cells. The class given is cell-based. To be noted: GluR1/GluR2; glutamate. In general terms: An ELISA detects its analyte on a solid surface through an enzyme-linked reagent.
Experimental: Cell-ELISA assays (colorimetric assays) were done essentially as previously described (82). […] Cells were incubated in 1% (W/V) glycine for 10 minutes at 4° C. to recover from the fixing. Cells were then incubated with a monoclonal antibody against specific antibodies for the purpose of labeling the receptors or proteins on the cell surface under non-permeabilized conditions or the entire receptor pool under permeabilized conditions. After incubation with corresponding HRP-conjugated secondary antibodies (Sigma-Aldrich), the HRP substrate o-phenylenediamine (Sigma-Aldrich Co) was added to produce a color reaction that was stopped with the equal volume of 3N HCl. Fluorescence intensity in each well was measured with a plate reader (Victor3; PerkinElmer). […] Afterwards, cells were scrapped from the dishes, and the protein concentration of each dish was measured. The results of cell surface expression of receptors or proteins were calibrated by the protein concentration of each well. Analysis was done using at least 9 separate wells in each group.
Test [8] has as its target T5, GAPDH:AMPAR complex (Rattus norvegicus, UniProt P04797).
T5 construct: endogenous in cells; host or cells: primary hippocampal neurons from fetal Wistar rats
Nature of the test: Co-immunoprecipitation of GAPDH with GluR2 in primary cultures of rat hippocampal neurons. The class given is cell-based. Particulars: preincubation 10 μM, 1 hour; 100 μM kainic acid, 30 min. On the procedure: as §4, §1

The test system of test [9] is HEK-293T cells cotransfected with GluR1/GluR2. Nature of the test: Nuclear translocation of GAPDH and GluR2 in HEK-293T cells (nuclei, Western blot). In kind it is cell-based. Particulars: peptide 10 μM, 1 hr; glutamate 100 μM, 30 min. The method, then:
as §1
(§5) Nuclei isolation was prepared as described previously (55, 66). Briefly, cells were gently rinsed twice with ice-cold PBS. And scraped in 1 ml of solution 1 (10 mM Tris-HCl, pH7.4, 100 mM NaCl2, 2.5 mM MgCl2, 0.5% NP-40, proteinase inhibitor and PMSF) per 10-cm plate. Then cells were homogenized by four passages through a 25-gauge needle and spin at 3000 g briefly. Pellets containing nuclei were subsequently utilized in biochemical assays.
(Immunoblotting shows a protein as a band on a membrane.)

In a further test the test system is hippocampal neurons. Nature of the test: Nuclear translocation of GAPDH and GluR2 in hippocampal neurons. In kind it is cell-based, rat. Particulars: peptide 10 μM, 1 hr; 100 μM KA, 10 μM MK-801, 2 μM nimodipine, 30 min. On the procedure:
as §4, §1, §5

The next test relates to GAPDH-p53 interaction. Nature of the test: Co-immunoprecipitation of GAPDH with p53. In kind it is cell-based. Particulars: extracted nuclear proteins; AMPAR activation. On the procedure:
as §1, §5, §3

A further test relates to hippocampal CA1 neurons. Nature of the test: Four vessel occlusion ischemia model, cresyl violet-stained nuclei in CA1. In kind it is in vivo, rat. Particulars: 1 μM, 0.5 μl into hippocampus, 5-day recirculation. On the procedure: In this study, a cannula (small diameter stainless steel tubes) was implanted in the animal one week before surgery. This cannula was used to deliver the peptide GluR2 NT1-3-2 (1 μM, 0.5 μl) into hippocampus where GAPDH-GluR2 interaction is considered to occur. On the surgery day, the four vessel occlusion ischemia model was performed in order to induce ischemia. Animals were treated with the peptide GluR2 NT1-3-2 either before (30 min) or after (2 hour) the induction of ischemia to examine the neuroprotective effect of the peptide. After a 5-day recirculation period, animals were decapitated, the brains were removed and dissected to harvest the hippocampus. Cresyl violet was used to stain alive neurons in hippocampus region of each animal. Cresyl violet-stained nuclei were observed by microscope and total number of stained nuclei in CA 1 region was summarized and normalized to the sham-operated group.

No end group written: not given here.

T1 sequence (P04406 2-335 limits assumed, one chain of several): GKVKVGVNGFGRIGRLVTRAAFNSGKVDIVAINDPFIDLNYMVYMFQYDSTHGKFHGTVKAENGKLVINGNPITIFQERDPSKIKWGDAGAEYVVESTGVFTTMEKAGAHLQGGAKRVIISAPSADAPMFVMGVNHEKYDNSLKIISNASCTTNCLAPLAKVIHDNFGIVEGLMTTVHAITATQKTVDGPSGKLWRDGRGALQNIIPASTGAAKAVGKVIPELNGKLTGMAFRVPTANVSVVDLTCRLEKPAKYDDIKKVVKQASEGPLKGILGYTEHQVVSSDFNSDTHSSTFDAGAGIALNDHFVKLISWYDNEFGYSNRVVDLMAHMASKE
T5 sequence (P04797 whole entry, one chain of several): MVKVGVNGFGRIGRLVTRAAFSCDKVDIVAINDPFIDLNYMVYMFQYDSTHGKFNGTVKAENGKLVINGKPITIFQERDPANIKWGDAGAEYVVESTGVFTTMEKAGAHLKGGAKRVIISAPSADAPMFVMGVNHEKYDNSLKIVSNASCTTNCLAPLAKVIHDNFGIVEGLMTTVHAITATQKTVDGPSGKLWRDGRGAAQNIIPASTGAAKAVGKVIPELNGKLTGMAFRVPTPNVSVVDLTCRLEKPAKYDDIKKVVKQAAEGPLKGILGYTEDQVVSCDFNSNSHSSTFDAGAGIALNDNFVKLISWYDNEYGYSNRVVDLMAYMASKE
T3 sequence (P04797 whole entry): as the sequence (P04797 whole entry, one chain of several) above

Turning to `N#Cc1cc2c(cc1[N+](=O)[O-])=NC(=O)C(=O)N=2` [CNQX, 6-cyano-7-nitroquinoxaline-2,3-dione], the “association between GAPDH and GluR2 with antagonist” value at GAPDH:AMPAR complex [1] (glutamate-activated AMPA receptor) is “decreased”.
In the case of `O=C(O)CN(CCOCCOCCN(CC(=O)O)CC(=O)O)CC(=O)O` [EGTA, reference compound], the “GluR1/GluR2 AMPAR-mediated cell death on depletion of calcium” value in test [2] (5 mM EGTA) is “remained intact”. The “inhibition of NR1-1a/2A NMDA receptor-mediated cell death” value in test [3] worked out at 38±3.6%.
Take `N[C@@H](CCC(=O)O)C(=O)O` [Glutamate]: on GAPDH:AMPAR complex [1], the “CO-IP of GAPDH by the GluR2 subunit antibody on agonist activation” value was “increase”.
As to `Cc1ccc(-c2cn3c4c(sc3n2)CCCC4)cc1` [cyclic PFT-α, reference compound], in test [2], the “attenuation/inhibition of AMPAR-mediated (glutamate-induced) cell death” value was 49.8±8.3%. The “inhibition of GluR1/3 AMPAR-mediated (glutamate-induced) cell death” value in [4] is listed as “failed to inhibit”.
With “GST-GAPDH(2-2-1-1): GST-fusion protein encoding truncated GAPDH fragment I221-E250”, the “pull down of p53” value with p53 is on record as “specifically pulled down”.
“GST-GluR2 NT1-3-2: GST-fusion protein of GluR2 NT1-3-2 Y142-K172 (YYQWDKFAYLYDSDRGLSTLQAVLDSAAEKK; not fully specified (N-terminus); also: GST fusion partner)”: the “affinity precipitation of GAPDH (Western blot)” value with GAPDH was “presence of GAPDH”. The “binding of [35S]-GAPDH probe” value in test [35S]-GAPDH is given as “bound”.
In the case of “GluR2 NT1-3-2 peptide: polypeptide of the GluR2 NT1-3-2 (Y142-K172) amino acid sequence (SEQ ID NO:1) (YYQWDKFAYLYDSDRGLSTLQAVLDSAAEKK; Y142-K172 of GluR2 subunit receptor from homo sapiens)”, in [2] (GluR1/2 transfected cells, no glutamate), the “effect of the peptide itself on cell death in the absence of glutamate treatment” value is reported as “no effect”. Besides, the “attenuation/inhibition of AMPAR-mediated (glutamate-induced) cell death” value in test [2] is given as 56±1.6%. The “inhibition of AMPAR-mediated cell death” value in test [5] is given as 47.6±3.3%. In addition, the “inhibition of GluR1/3 AMPAR-mediated (glutamate-induced) cell death” value in [4] is “failed to inhibit”. Besides, the “effect of the peptide itself in the absence of GluR1/GluR2 co-expression” value in test [6] is reported as “no effect”. Besides, the “agonist-induced GAPDH internalization after preincubation of peptide” value in test [7] is recorded as “abolished”. The “agonist-induced increase in GAPDH:AMPAR complex formation” value with GAPDH:AMPAR complex [1] (preincubation 10 μM, 1 hour, 100 μM glutamate, 30 min) is listed as “significantly inhibited”; with GAPDH:AMPAR complex [8] it was “significantly inhibited”. Also, the “nuclear translocation of GAPDH and GluR2” value (in [9]; in the test on hippocampal neurons) was “blocked” in each case. Moreover, the “GAPDH-p53 interaction after peptide pretreatment” value in the test on GAPDH-p53 interaction is reported as “inhibited”. In addition, in the test with hippocampal CA1 neurons (30 min before ischemia), the “neurons rescued from cell death, peptide treatment before ischemia” value is 18.2%. Also, the “neurons rescued from cell death, peptide treatment after ischemia” value in the test on hippocampal CA1 neurons (2 hour after ischemia) is given as 13.2%.

Source of the values: patent publication US8536115B2, “Compositions and methods for modulating AMPA receptor-mediated excitotoxicity” (Centre for Addiction and Mental Health, priority 2006, dated 2013).
